Assay results reported in the METLIN SMRT retention time set (Domingo-Almenara et al. 2019).

Assay: gradient 5% acetonitrile 3 min, to 50% in 2 min, to 85% in 15 min, held 3 min, 100 µL/min
Conditions: column: Zorbax Extend-C18 2.1 x 50 mm; eluents: water / acetonitrile, 0.1% formic acid
Outline: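 Using water and acetonitrile that each contained 0.1% formic acid, mixtures of ~100 pure standards were separated at 100 μL/min on a Zorbax Extend-C18 column (2.1 × 50 mm, 1.8 μm). The HPLC fed a quadrupole time-of-flight mass spectrometer working in positive and negative ionization mode, with dead and dwell volumes of 40 μL and 900 μL. Data were acquired over 3 months. Retention time was read from computationally picked adduct peaks after manual inspection of each.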

Row | RP-LC retention time [s] | SMILES
1 | 643 | COCCCN1CN=C(Nc2nc(C)c3cc(OC)ccc3n2)NC1
2 | 863 | CC1CCC2(CC1)NC(=O)N(CC(=O)NCCc1ccc(Cl)cc1)C2=O (configuration not stated)
3 | 695 | O=C(CSc1nnc2ccccn12)Nc1nc(-c2ccccc2)ns1
4 | 880 | O=C(CCC1CCCC1)NCCC1CCN(C(=O)Nc2ccc(F)cc2F)CC1
5 | 646 | O=C(CNC(=O)c1cccc(Cl)c1)Nc1nc2ccccc2[nH]1
6 | 869 | Cc1noc(C)c1-c1ccc(S(=O)(=O)NCc2cccs2)cc1
7 | 578 | CC1(C(=O)NCCCN2CCc3ccccc3C2)CCCCC(=O)N1 (configuration not stated)
8 | 949 | CN(C)C(=O)c1csc(N2CCN(c3cccc(Cl)c3)CC2)n1
9 | 637 | COc1ccc2c(c1)CC(NC(=O)N1CCN(Cc3ccccc3)CC1)CO2 (configuration not stated)
10 | 910 | Cc1ccc(CN2CCN(C3CCN(S(=O)(=O)c4cc(F)ccc4F)CC3)C(=O)C2=O)cc1
11 | 675 | CC(C)Cn1c(-c2ccccc2)nc2ccccc21
12 | 648 | COc1ccc(N2CCN(c3nc(C(=O)N4CCN(CC(C)C)CC4)cs3)CC2)cc1
13 | 557 | CCC(C)NC(=O)N1CCNC(=O)C1 (configuration not stated)
14 | 623 | CCCCN(C)c1ccc(NC(=O)c2cccs2)cc1C(=O)O
15 | 607 | Cc1ccc(NC(=O)NC2CCN(c3cc(C)cc(C)c3)C2=O)cc1 (configuration not stated)
16 | 860 | Cc1ccc(CNC(=O)NC2CCN(c3nc4cccnc4n(C)c3=O)CC2)cc1
17 | 725 | O=C(NCc1cccs1)C1CCN(C(=O)c2ncn3c2COC(c2ccccc2)C3)CC1 (configuration not stated)
18 | 1110 | COc1ccc2c(c1)-c1nc(NC(=O)c3ccccc3Cl)sc1CC2

Row | RP-LC retention time [s] | SMILES
19 | 671 | COCCN1CCn2cc(S(=O)(=O)Nc3ccc(C#N)cc3)cc2C1=O
20 | 659 | O=C(NCc1cscn1)C1CCN(S(=O)(=O)c2cccc3nsnc23)CC1
21 | 1180 | Cc1nc2cc(-c3noc(-c4ccc(C(F)(F)F)cc4)n3)ccc2n(C)c1=O
22 | 736 | COc1ccc(-c2nc3cc(C)ccn3c2NC(=O)c2ccc(Cl)c([N+](=O)[O-])c2)cc1
23 | 692 | COc1ccc(Nc2nc(N)nc(CSc3nnc4sc5ccccc5n34)n2)cc1
24 | 653 | CCSc1nnc(NC(=O)Cn2nc(-n3cccn3)ccc2=O)s1
25 | 880 | Cc1cc2c(F)c(Oc3ncnn4cc(OC[C@@H](C)O)c(C)c34)ccc2[nH]1
26 | 1110 | COc1ccc(-n2c(=O)c(C(=O)NCC3CC3)c(O)c3cccnc32)cc1
27 | 707 | COc1ccc(OC)c(CNC(=O)c2nc(N3CCCC3)c3ccccc3n2)c1
28 | 823 | CC(C)CC(=O)Nc1cnc(N2CCCCCC2)nc1
29 | 1040 | Cc1cc(Br)ccc1NC(=O)Cc1csc(Nc2ccc(Cl)cn2)n1
30 | 1040 | Cn1c(=O)n(C)c2cc(N3CCCCC3)c(NC(=O)COc3ccc(Cl)cc3)cc21
31 | 1260 | CCOC(=O)c1ccc(NC(=O)Cn2c(=O)c(CCC(=O)NC)nc3ccccc32)cc1
32 | 1090 | CC(=O)N1CCN(c2cc(-c3nc(-c4cccc(F)c4)no3)c3ccccc3n2)CC1
33 | 554 | COc1cccc(C(O)CN2CCN(c3ccccn3)CC2)c1 (configuration not stated)
34 | 677 | COC(=O)c1c(-c2ccccc2)noc1NCc1cccc(OC)c1
35 | 735 | CCCn1c(C2CCN(C(=O)c3ccc(Br)o3)C2)nc2cccnc21 (configuration not stated)
36 | 876 | Cc1cccc(N2CCN([C@H]3CS(=O)(=O)C[C@@H]3S(=O)(=O)c3ccccc3)CC2)c1

Row | SMILES | RP-LC retention time [s]
37 | COc1ccc2c(c1)C1(CCN(S(=O)(=O)c3cc(OC)ccc3OC)C1)C(=O)N2C (configuration not stated) | 879
